# From patent publication US20230255953A1, “USE OF ROLUPERIDONE IN PREVENTING RELAPSE IN SCHIZOPHRENIA PATIENTS” (Minerva Neurosciences, Inc., priority 2022, published 2023)
# Tested on: patients with negative symptoms of schizophrenia
# Test: Integrated analysis of Studies #1 and #2 (pooled ITT): PANSS-derived scores (NSFS, total, positive and negative subscales), DB, OL and whole study
# Type: in vivo, human
# Parameters: key to NSFS Score change from Baseline, Median: change from Baseline in PANSS NSFS points; higher score = more severe
# Details: for NSFS Score change from Baseline, LS mean (SE) / NSFS Score change from Baseline, Mean (SD) / NSFS Score change from Baseline, Median / NSFS Score, Difference (95% CI) in LS mean (vs placebo) / PANSS Negative Subscale Score change from Baseline, LS mean (SE) / PANSS Negative Subscale Score change from Baseline, Mean (SD) / PANSS Negative Subscale Score change from Baseline, Median / PANSS Negative Subscale Score, Difference (95% CI) in LS mean (vs placebo) / PANSS Total Score change from Baseline, LS mean (SE) / PANSS Total Score change from Baseline, Mean (SD) / PANSS Total Score change from Baseline, Median / PANSS Total Score, Difference (95% CI) in LS mean (vs placebo): DB
# Experimental: The primary integrated analysis of the efficacy of Roluperidone compared with placebo for the treatment of negative symptoms of schizophrenia is based on the change from Baseline in the PANSS Marder's negative symptoms factor score (in this document referred to as NSFS) to Week 12. Efficacy is also supported by the analysis of change from Baseline in the PSP Total score and the CGI-S to Week 12.
# The PANSS was assessed at the time points described in Table 4.
# The PANSS-derived endpoints used in these studies and the integrated analyses are described in Table 5A and a summary of the individual PANSS items used by physicians and clinicians to measure the severity of the symptoms in a schizophrenia patient is provided in Table 5B. The scale is divided into three parts, a positive scale, which provides a “PANSS positive subscore”, a negative scale, which provides a “PANSS negative subscore”, and general psychopathology scale. The sum of these three parts provides a PANSS total score, which ranges from 30 to 210 (where higher scores indicate more severe symptoms). (See Kay, S. R., et al. “The positive and negative syndrome scale (PANSS) for schizophrenia,” Schizophr Bulletin, 13(2), 261-276 (1987) and Gopal, S., et al. “Improvement of Negative Symptoms in Schizophrenia with Paliperidone Palmitate 1-Month and 3-Month Long-Acting Injectables: Results from a Phase 3 Non-Inferiority Study” Neuropsychiatric Disease and Treatment, 681-690, DOI: 10.2147/NDT.5226296, both of which are incorporated by reference.)
# The Efficacy data from Study Nos. 1 and 2 were pooled. The majority of patients in the pooled ITT population completed the DB period (502 patients overall, 66.3%), with similar rates in each treatment group (placebo: 69.8%, 32 mg Roluperidone: 65.3%, and 64 mg Roluperidone: 63.8%) (Table 12). The majority (62.7%) of those who completed the DB period entered the OL period. The most common reason for discontinuation during the DB period among patients overall was withdrawal of consent (15.6%), followed by adverse events (7.3%) and lack of efficacy (5.4%) (Table 12). […] Approximately twice as many patients in the Roluperidone groups (32 mg: 8.5%; 64 mg: 9.1%) discontinued due to adverse events compared with patients in the placebo group (4.3%). More patients in the placebo group discontinued due to lack of efficacy (6.7%) than in the Roluperidone groups (32 mg: 4.4%; 64 mg: 5.1%). The low number of patients who discontinued due to lack of efficacy or withdrawal of consent probably reflects a low level of worsening of positive symptoms.
# The integrated analysis supporting the efficacy of Roluperidone as a treatment for the negative symptoms of schizophrenia in adults is presented below.
substance,measurement,setting,value
"1H-Isoindol-1-one,2-[ [1-[2-(4-fluorophenyl)-2-oxoethyl]-4-piperidinyl]methyl]-2,3-dihydro-, hydrochloride, hydrate (1:1:2) [Roluperidone]","PANSS positive subscale score, LS mean change from Baseline compared with placebo","32 mg, Week 12, pooled ITT",−0.3
same,"PANSS total score, LS mean change from Baseline compared with placebo","32 mg, Week 12, pooled ITT",−1.9
same,"Patients with 20% Reduction in NSFS at Week 12, percent","32 mg, responder analysis",31%
same,"Patients with 20% Reduction in PANSS Total Score at Week 12, percent","32 mg, responder analysis",14%
same,Number of Patients with 20% Reduction in PANSS Total Score at Week 12,"32 mg, responder analysis, n/N",24/167
same,Number of Patients with 20% reduction in NSFS at Week 12,"32 mg, responder analysis, n/N",51/167
same,"NSFS Score change from Baseline, LS mean (SE)","64 mg, Week 2, pooled ITT",−1.4 (0.15)
same,"NSFS Score change from Baseline, Mean (SD)","64 mg, Week 2, pooled ITT",−1.4 (2.34)
same,"NSFS Score change from Baseline, Median","64 mg, Week 2, pooled ITT",−1.0
same,"NSFS Score, Difference (95% CI) in LS mean (vs placebo)","64 mg, Week 2, pooled ITT","−0.4 (−0.8, −0.0)"
same,"PANSS Negative Subscale Score change from Baseline, LS mean (SE)","64 mg, Week 2, pooled ITT",−1.4 (0.14)
same,"PANSS Negative Subscale Score change from Baseline, Mean (SD)","64 mg, Week 2, pooled ITT",−1.4 (2.28)
same,"PANSS Negative Subscale Score change from Baseline, Median","64 mg, Week 2, pooled ITT",−1.0
same,"PANSS Negative Subscale Score, Difference (95% CI) in LS mean (vs placebo)","64 mg, Week 2, pooled ITT",−0.4
same,"PANSS Total Score change from Baseline, LS mean (SE)","64 mg, Week 2, pooled ITT",−2.2 (0.44)
same,"PANSS Total Score change from Baseline, Mean (SD)","64 mg, Week 2, pooled ITT",−2.2 (7.15)
same,"PANSS Total Score change from Baseline, Median","64 mg, Week 2, pooled ITT",−2.0
same,"PANSS Total Score, Difference (95% CI) in LS mean (vs placebo)","64 mg, Week 2, pooled ITT",−0.9
same,"PANSS Positive Subscale Score change from Baseline, LS mean (SE)","64 mg, Week 2, pooled ITT",−0.1 (0.17)
same,"PANSS Positive Subscale Score change from Baseline, Mean (SD)","64 mg, Week 2, pooled ITT",−0.1 (2.85)
same,"PANSS Positive Subscale Score change from Baseline, Median","64 mg, Week 2, pooled ITT",0.0
same,"PANSS Positive Subscale Score, Difference (95% CI) in LS mean (vs placebo)","64 mg, Week 2, pooled ITT",−0.1
same,"NSFS Score change from Baseline, LS mean (SE)","64 mg, Week 4, pooled ITT",−2.5 (0.19)
same,"NSFS Score change from Baseline, Mean (SD)","64 mg, Week 4, pooled ITT",−2.6 (2.73)
same,"NSFS Score change from Baseline, Median","64 mg, Week 4, pooled ITT",−2.0
same,"NSFS Score, Difference (95% CI) in LS mean (vs placebo)","64 mg, Week 4, pooled ITT",−1.1
same,"PANSS Negative Subscale Score change from Baseline, LS mean (SE)","64 mg, Week 4, pooled ITT",−2.6 (0.19)
same,"PANSS Negative Subscale Score change from Baseline, Mean (SD)","64 mg, Week 4, pooled ITT",−2.8 (2.82)
same,"PANSS Negative Subscale Score change from Baseline, Median","64 mg, Week 4, pooled ITT",−2.0
same,"PANSS Negative Subscale Score, Difference (95% CI) in LS mean (vs placebo)","64 mg, Week 4, pooled ITT",−1.2
same,"PANSS Total Score change from Baseline, LS mean (SE)","64 mg, Week 4, pooled ITT",−4.5 (0.52)
same,"PANSS Total Score change from Baseline, Mean (SD)","64 mg, Week 4, pooled ITT",−5.1 (7.16)
same,"PANSS Total Score change from Baseline, Median","64 mg, Week 4, pooled ITT",−5.0
same,"PANSS Total Score, Difference (95% CI) in LS mean (vs placebo)","64 mg, Week 4, pooled ITT",−2.5
same,"PANSS Positive Subscale Score change from Baseline, LS mean (SE)","64 mg, Week 4, pooled ITT",−0.2 (0.18)
same,"PANSS Positive Subscale Score change from Baseline, Mean (SD)","64 mg, Week 4, pooled ITT",−0.4 (2.49)
same,"PANSS Positive Subscale Score change from Baseline, Median","64 mg, Week 4, pooled ITT",−1.0
same,"PANSS Positive Subscale Score, Difference (95% CI) in LS mean (vs placebo)","64 mg, Week 4, pooled ITT",−0.5
same,"NSFS Score change from Baseline, LS mean (SE)","64 mg, Week 8, pooled ITT",−3.4 (0.23)
same,"NSFS Score change from Baseline, Mean (SD)","64 mg, Week 8, pooled ITT",−3.6 (3.28)
same,"NSFS Score change from Baseline, Median","64 mg, Week 8, pooled ITT",−3.0
same,"NSFS Score, Difference (95% CI) in LS mean (vs placebo)","64 mg, Week 8, pooled ITT",−1.2
same,"PANSS Negative Subscale Score change from Baseline, LS mean (SE)","64 mg, Week 8, pooled ITT",−3.7 (0.23)
same,"PANSS Negative Subscale Score change from Baseline, Mean (SD)","64 mg, Week 8, pooled ITT",−3.9 (3.27)
same,"PANSS Negative Subscale Score change from Baseline, Median","64 mg, Week 8, pooled ITT",−3.0
same,"PANSS Negative Subscale Score, Difference (95% CI) in LS mean (vs placebo)","64 mg, Week 8, pooled ITT",−1.3
same,"PANSS Total Score change from Baseline, LS mean (SE)","64 mg, Week 8, pooled ITT",−5.7 (0.65)
same,"PANSS Total Score change from Baseline, Mean (SD)","64 mg, Week 8, pooled ITT",−6.8 (8.79)
same,"PANSS Total Score change from Baseline, Median","64 mg, Week 8, pooled ITT",−6.0
same,"PANSS Total Score, Difference (95% CI) in LS mean (vs placebo)","64 mg, Week 8, pooled ITT",−2.5
same,"PANSS Positive Subscale Score change from Baseline, LS mean (SE)","64 mg, Week 8, pooled ITT",−0.3 (0.20)
same,"PANSS Positive Subscale Score change from Baseline, Mean (SD)","64 mg, Week 8, pooled ITT",−0.6 (2.61)
same,"PANSS Positive Subscale Score change from Baseline, Median","64 mg, Week 8, pooled ITT",−1.0
same,"PANSS Positive Subscale Score, Difference (95% CI) in LS mean (vs placebo)","64 mg, Week 8, pooled ITT",−0.5
same,"NSFS Score change from Baseline, LS mean (SE)","64 mg, Week 12, pooled ITT",−3.9 (0.26)
same,"NSFS Score change from Baseline, Mean (SD)","64 mg, Week 12, pooled ITT",−4.1 (3.64)
same,"NSFS Score change from Baseline, Median","64 mg, Week 12, pooled ITT",−3.5
same,"NSFS Score, Difference (95% CI) in LS mean (vs placebo)","64 mg, Week 12, pooled ITT",−1.3
same,"PANSS Negative Subscale Score change from Baseline, LS mean (SE)","64 mg, Week 12, pooled ITT",−4.1 (0.27)
same,"PANSS Negative Subscale Score change from Baseline, Mean (SD)","64 mg, Week 12, pooled ITT",−4.4 (3.75)
same,"PANSS Negative Subscale Score change from Baseline, Median","64 mg, Week 12, pooled ITT",−4.0
same,"PANSS Negative Subscale Score, Difference (95% CI) in LS mean (vs placebo)","64 mg, Week 12, pooled ITT",−1.3
same,"PANSS Total Score change from Baseline, LS mean (SE)","64 mg, Week 12, pooled ITT",−6.3 (0.70)
same,"PANSS Total Score change from Baseline, Mean (SD)","64 mg, Week 12, pooled ITT",−7.7 (9.43)
same,"PANSS Total Score change from Baseline, Median","64 mg, Week 12, pooled ITT",−7.0
same,"PANSS Total Score, Difference (95% CI) in LS mean (vs placebo)","64 mg, Week 12, pooled ITT",−2.8
same,"NSFS Emotional Experience Score, Change from Baseline (LS Means [SEM])","64 mg, Week 12, ITT",−1.6 (0.13)
same,"NSFS Emotional Expression Score, Change from Baseline (LS Means [SEM])","64 mg, Week 12, ITT",−2.3 (0.16)
same,"NSFS, Change from Baseline (LS Means [SEM])","64 mg, Week 12, ITT",−3.9 (0.26)
same,"PANSS General Psychopathology Subscale, Change from Baseline (LS Means [SEM])","64 mg, Week 12, ITT",−2.2 (0.37)
same,"PANSS Negative Symptoms Subscale, Change from Baseline (LS Means [SEM])","64 mg, Week 12, ITT",−4.1 (0.27)
same,"PANSS Positive Symptoms Subscale, Change from Baseline (LS Means [SEM])","64 mg, Week 12, ITT",−0.2 (0.21)
same,"PANSS Total Score, Change from Baseline (LS Means [SEM])","64 mg, Week 12, ITT",−6.3 (0.70)
same,"NSFS, LS mean change from Baseline compared with placebo","64 mg, Week 12, normal BMI (<25 kg/m^2) subgroup, pooled ITT",−1.7
same,"NSFS, LS mean change from Baseline compared with placebo","64 mg, Week 12, obese (≥30 kg/m^2) subgroup, pooled ITT",−0.1
same,"NSFS, LS mean change from Baseline compared with placebo","64 mg, Week 12, overweight BMI (25 to <30 kg/m^2) subgroup, pooled ITT",−1.4
same,Patients with high improvement in NSFS (magnitude of change >8),"64 mg, Week 12, pooled",13%
